Measured values reported in patent US20080064643A1, “Myd88 Homodimerization Inhibitors” (priority 2004, published 2008).
Starred links: 1 amine or outer side, 2 acyl side, 3 side chain; linkers in the order of their positions; H or OH if unused. Non-standard residues stand in square brackets, D forms with d. Residues, ends and D or L forms follow the SMILES beside them. *: point of attachment. AzaVal = azavaline, CC(C)N(N[*:1])C(=O)[*:2]; X1 = NC(=O)CN1CC[C@@]2(CCCN2*)C1=O; azaLeu = CC(C)CN(N[*:1])C(=O)[*:2]

Experiments:
NF-kB [1] = assay: NF-kB inhibition assay in HeLa cells stimulated with IL1α (Trans AM ELISA); type: cell-based, Human; conditions: for inhibition at 100 µM: Homo sapiens, HeLa, read-out: % NF-κB INHIBITION; for % NF-κB INHIBITION: HeLa cells, compound 100 μM for 6 hours, then 5 ng/ml IL1α for 30 minutes
Procedure: The activation of NF-kB is an event that takes place downstream of the homodimerisation of MyD88 and its binding to the intracytoplasmic portions of number of receptor complexes. The ability of the compounds which are the subject of the present invention to inhibit the activation of NF-kB downstream of the amplification cascade of the signal triggered by IL1α was therefore evaluated.
All the molecules were assayed beforehand with the MTT cell viability test, verifying that the dose of compound used in the NF-kB inhibition assay was lower than the toxic dose.
HeLa* cells were cultured in EMEM (EBSS) medium supplemented with 2 mM glutamine+1% non-essential amino acids+7.5% FBS (Foetal Bovine Serum)+10 ml/l of a solution of penicillin-streptomycin (10,000 units/ml penicillin and 10 mg/ml streptomycin).
(All cell media and the various components were purchased from Sigma-Aldrich. *HeLa cell line Human Negroid cervix epithelioid carcinoma Human from SIGMA ALDRICH ECACC Ref No: 93021013. IL1α*=SIGMA I2778 Interleukin-1-alpha IL1a Human, recombinant expressed in E. coli).
The cells were used after a number of cell passages ranging from 14 to 35.
Cells are seeded in 6-well plates at a density of 300,000 cells/well in complete medium and incubated overnight at 37° C., 5% CO2.
After approximately 18 hours, the complete medium is eliminated, cells are washed twice with PBS 1× and 1 ml of FBS-free medium is added to each well.
The molecules to be tested are subsequently added to the medium at a concentration of 100 μM. Cells are then incubated for 6 hours at 37° C., 5% CO2.
All the molecules assayed were dissolved in DMSO.
An equivalent volume of DMSO is added to the negative controls, i.e. cells not treated with the molecules.
At the end of the treatment with the molecules, the cells are stimulated with 5 ng/ml of IL1α* for 30 minutes and incubated at 37° C., 5% CO2.
An equivalent volume of PBS/BSA 0.4% (solution used to dissolve IL1α) is added to the negative controls, i.e. non-stimulated cells.
After stimulation with IL1α the cells are washed twice with PBS 1× and collected by cell scraping.
The cells are then centrifuged at 800 rpm, 4° C., 10 min. The supernatants are eliminated. The pellets are re-suspended in lysis buffer**, incubated for 10 minutes at 4° C. and centrifuged at maximum speed at 4° C. The pellets are eliminated and the supernatants frozen at −80° C.
The total protein content is subsequently measured by Bradford Assay using, as the standard, BSA at known concentration, and as used in the ELISA assay as described here below.
Activation/inhibition of NF-kB is evaluated using the Trans AM# (Active Motif) kit.
Il Trans AM kit permits detection of the activation of NF-kB induced by IL1α, through a calorimetric reaction that is obtained at the end of a routine ELISA assay.
The kit provides 96-well plates derivatised with an oligonucleotide that contains the consensus site of NF-kB (5′-GGGACTTT-CC-3′). This oligonucleotide specifically binds only the active form of NF-kB which is released after stimulation with IL1α. The first antibody supplied for detecting NF-kB recognises the p65 epitope which is accessible only when the transcriptional factor is active and binds its target DBNA sequence.
The secondary antibody supplied is conjugated to horse radish peroxidase which, with the addition of a chromogenic substrate, makes it possible to obtain a calorimetric reaction that can be evaluated spectrophotometrically at the wavelength of 450 nm.
The samples are assayed in duplicate and 10 μg of each extract are loaded into each well.
At the end of the assay, the % inhibition is calculated by processing the values obtained in the spectrophotometric readings as follows:
IL*-C*/IL-C=% activation of NF-kB.
IL*=A450 of cells stimulated and treated with the study molecules.
C*=A450 of cells not stimulated and treated with the study molecules.
IL=A450 of cells stimulated with IL1α and not treated with the molecules.
C=A450 of cells not stimulated and not treated. […]

[2] = tested on: IL-1-responsive human IL-8 promoter gene region; assay: reporter gene assay (RGA) of luciferase activity in CaCo2 cells stimulated with IL-1; type: cell-based; conditions: substance 100 μM, IL-1 500 pg/mL
From the text: It is based on transient co-transfection of CaCo2 human intestinal epithelial cells with a reporter gene plasmid whose luciferase reporter gene expression is under control of the IL-1-responsive human IL-8 promoter gene region. The second plasmid in co-transfection is a vector coding for a control Renilla luciferase reporter gene, whose constitutive expression is used to estimate unspecific cellular toxicity of tested compounds. The read-out of the assay has been defined as the Relative Response Ratio (RRR) for the firefly and the Renilla luciferase, as follows: [formula] where the experimental sample is the value in cont per second (cps) of the experimental reporter luminescence, as defined for any unknown sample. The positive control is the value in cps of the reporter luminescence, as defined for the sample which identifies the maximal induction by IL-1 in the absence of reference inhibitor compound. The negative control is the value in cps of the reporter luminescence, as defined for the sample which identifies the absence of induction by IL-1. For the non-inducible Renilla luciferase, the RRR has been defined as follows: [formula]
The RGA is the read-out of the above experiments, and it was run as follows:
Plate 6×10^6 adherent CaCo2 cells on 10 cm plates. After 18-24 hours culture medium is changed, using 9 mL of D-MEM+glutamine 580 mg/L, without FBS and antibiotics. For each plate, 26 μg of IL-1-responsive reporter vector DNA (pGL2-NA-INT) and 4 μg of control reporter vector DNA are then dissolved in 500 μL Optimem (Invitrogen). Lipofectamine 2000 Reagent (Invitrogen) 30 μL are then added to 500 μL Optimem; this latter reaction mix is incubated for 5 min at room temperature. The DNA mix is then added drop by drop to the Lipofectamine 2000 mix. The resulting DNA/Lipofectamine mix is incubated for 20 min at room temperature and it is added drop by drop over the culture plate, by gently rocking the plate itself. Culture plates are then incubated for about 6 hours at 37° C. and 5% CO2. Cells are then trypsinized and transferred in 96-well plates, at 5×10^4 cells/well in 100 μL of culture medium (D-MEM with FBS 1%,+glutamine 580 mg/L), as required by the experimental design. Afterwards, cells were incubated for 16-18 hours at 37° C. and 5% CO2 and treated as follows: • Take out culture medium from each well. • Add 60 μL of fresh culture medium to control cell wells. • Add 40 μL of fresh culture medium to IL-1-treated wells. • Add 40 μL of fresh culture medium and 20 μL of substance at a concentration of 100 μM and 0.4% DMSO to inhibitor substance wells. • Add 20 μL fresh culture medium supplemented with 0.4% DMSO in IL-1-treated wells and in control cell wells. • Incubate at 37° C. and 5% CO2 for 4 hours. • After 2 hours, stimulate with 20 μL of IL-1 (500 pg/mL) for two additional hours at 37° C. and 5% CO2. • Appropriate amount of luciferase standard protein is included in additional assay wells. • Add for each well 80 μL of firefly luciferase substrate (Dual-Glo Luciferase Assay System reagent). • Incubate at room temperature for 10 min. • Read the firefly luciferase output on the Veritas lumenometer (Turner BioSystems). • Immediately add to each well 80 μL of the Renilla luciferase substrate (Dual-Glo Luciferase Assay System reagent). • Incubate at room temperature for 10 min. • Read the Renilla luciferase output on the Veritas lumenometer (Turner BioSystems).
Compounds considered positive in the RGA assay were those that gave a percentage inhibition ≧20%.

NF-kB [3] = assay: NF-kB activation inhibition, preliminary studies on natural peptides (Table 1); type: cell-based; conditions: conditions not stated
From the text: (§1) Preliminary studies on the inhibition of the homodimerisation of MyD88 have been conducted by the present inventors using a co-immunoprecipiation assay on a series of natural peptides (synthesised as acetylamide at the N terminal and as primary amide at the carboxyl terminal) comprising the consensus sequence of the BB loop. […] The protein myc-MyD88 is expressed temporarily in HEK293 cells and isolated from cell extracts by immunoprecipitation with the anti-myc antibody. The immunoprecipitated protein is incubated with purified protein GST-MyD88TIR for 60 min at 4° C. in the presence or absence of the synthetic peptide (final concentration 200 μM). After suitable washings, the proteins absorbed to the resin used for the immunoprecipitation are solubilised with SDS and analysed by Western blot for the presence of myc-MyD88 and GST-MyD88TIR. Percentage inhibition of NF-kB activation is also given for these two peptides

MyD88 homodimer = molecular target: T1, MyD88 homodimer (Homo sapiens, UniProt Q99836); assay: co-immunoprecipitation assay of MyD88 homodimerisation (myc-MyD88 / GST-MyD88TIR, Western blot); type: binding; conditions: residual interaction in the MyD88 homodimer as percentage of the untreated protein; peptide 200 μM, 60 min at 4° C.
T1 construct: incubated with purified protein GST-MyD88TIR; made in house; host or cells: HEK293 (myc-MyD88, transient expression)
From the text: as §1

T1 sequence (Q99836 whole entry): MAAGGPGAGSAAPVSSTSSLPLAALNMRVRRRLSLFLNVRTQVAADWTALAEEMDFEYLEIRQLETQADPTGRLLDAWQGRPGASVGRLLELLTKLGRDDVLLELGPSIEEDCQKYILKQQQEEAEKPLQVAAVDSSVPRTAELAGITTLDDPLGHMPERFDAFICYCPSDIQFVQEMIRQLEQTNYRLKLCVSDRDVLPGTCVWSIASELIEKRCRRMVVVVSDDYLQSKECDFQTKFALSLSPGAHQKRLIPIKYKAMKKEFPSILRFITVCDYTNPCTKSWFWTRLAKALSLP

Q: How did the inhibition at 100 µM (NF-kB [1]) turn out when `COc1ccc(C(=O)N2CCC[C@]23CCN(CC(=O)N[C@H](C(N)=O)[C@@H](C)O)C3=O)cc1NC(=O)c1cccnc1` [ST2792, PAM9-SP02-Beta2-Thr-NH2] was run?
A: Its inhibition at 100 µM is 22%.

Q: Which “% NF-κB INHIBITION” value (NF-kB [1]) does the source give for `CC(C)[C@H](NC(=O)[C@H](CC(=O)O)NC(=O)c1cccnc1)C(=O)N[C@H](C(=O)N1CCC[C@]12CCN(CC(N)=O)C2=O)C(C)C` [ST2794, PAM9-Asp-Val-Val-Beta2-NH2] here?
A: Its value is 25%.

Q: For `CC(=O)N[C@H](CCCNC(=N)N)C(=O)N[C@H](CC(=O)O)C(=O)N[C@@H](C(=O)N[C@H](CC(C)C)C(=O)N1CCC[C@@]12CCN(CC(N)=O)C2=O)C(C)C` [ST2799, Ac-arg-asp-val-leu-Beta1-NH2] (Ac-[dR][dD][dV][dL]-X1), which “% NF-κB INHIBITION” value (NF-kB [1]) is on record?
A: The value was 23%.

Q: How did the inhibition at 100 µM (NF-kB [1]) turn out when `CC(=O)NCC(=O)N1CCC[C@H]1C(=O)Nc1cccc(C(=O)N[C@@H](CCCNC(=N)N)C(N)=O)c1C` [ST2864, Ac-Gly-Pro-SP30-Arg-NH2] was run?
A: The inhibition at 100 µM was 16%.

Q: How did the “% INHIBITION” value [2] turn out when “Ac-Arg-Asp-AzaLeu-Val-Pro-Gly-NH2 (Ac-RD[azaLeu]VPG-NH2; SMILES CC(=O)N[C@@H](CCCNC(=N)N)C(=O)N[C@@H](CC(=O)O)C(=O)NN(CC(C)C)C(=O)N[C@H](C(=O)N1CCC[C@H]1C(=O)NCC(N)=O)C(C)C) [ST2928]” was run?
A: Its value is 29%.

Q: “Ac-Arg-Asp-Azagly-Val-Pro-Gly-NH2 [ST2927]” was tested. Which “% INHIBITION” value [2] did it give?
A: Its value is 22%.

Q: For “Ac-Arg-Asp-Val-AzaVal-Pro-Gly-NH2 [ST2920]”, which “% INHIBITION” value [2] is on record?
A: Its value is 25%.

Q: With “Ac-Azagly-Azagly-pro-leu-val-asp-arg-NH2 [ST3032]” as the compound, how does the “% INHIBITION” value [2] read?
A: Its value is 21%.

Q: Which “% NF-kB inhibition” value (NF-kB [3]) does the source give for Ac-RDVLPGT-NH2 [ST2348] here?
A: The value was 37%.

Q: What about the “% residual interaction” value (MyD88 homodimer) of the same compound?
A: The value was 29%.

Q: What does the source list for Ac-RDVVPGG-NH2 [ST2350]?
A: % NF-kB inhibition (NF-kB [3]): 20%; % residual interaction (MyD88 homodimer): 18%

Q: “Ac-thr-Azagly-pro-leu-val-asp-arg-NH2 [ST2930]” was tested. Which “% INHIBITION” value [2] did it give?
A: The value was 24%.

Q: Which “% NF-κB INHIBITION” value (NF-kB [1]) does the source give for “Ac-thr-gly-pro-leu-val-asp-arg-NH2 [ST2565]” here?
A: Its value is 30%.

Q: Which “inhibition of NF-κB activation” value (NF-kB [1]; HeLa cells stimulated with IL-1α) does the source give for “Ap-PTDLVRG-NH2 [ST2403, reference compound]” here?
A: The value was “inactive”.

Q: “H-Arg-Gly-AzaVal-Val-Pro-Gly-NH2 (H-RG[AzaVal]VPG-NH2; SMILES CC(C)[C@H](NC(=O)N(NC(=O)CNC(=O)[C@@H](N)CCCNC(=N)N)C(C)C)C(=O)N1CCC[C@H]1C(=O)NCC(N)=O) [ST2926]” was tested. Which “% INHIBITION” value [2] did it give?
A: The value was 20%.
